Assay: amounts of β-lactam antibiotic, β-lactamase inhibitor (C18 reverse-phase LC, UV-VIS) and aminoglycoside (HPLC-ELSD) in solution over time
Type: physicochemical
[1] = Example 10: mezlocillin sodium 2 g, sulbactam sodium 0.5 g, etimicin sulfate 200 mg, citrate pH 6.5, 200 mL water, room temperature, Time 0 h
[2] = Example 10: mezlocillin sodium 2 g, sulbactam sodium 0.5 g, etimicin sulfate 200 mg, citrate pH 6.5, 200 mL water, room temperature, Time 1 h
[3] = Example 10: mezlocillin sodium 2 g, sulbactam sodium 0.5 g, etimicin sulfate 200 mg, citrate pH 6.5, 200 mL water, room temperature, Time 2 h
[4] = Example 11: freeze-dried mezlocillin sodium, sulbactam sodium, citrate pH 6.5, 7 days 0° C., in 100 mL 5% fructose + etimicin sulfate 200 mg, Time 0 h
[5] = Example 11: freeze-dried mezlocillin sodium, sulbactam sodium, citrate pH 6.5, 7 days 0° C., in 100 mL 5% fructose + etimicin sulfate 200 mg, Time 1 h
[6] = Example 11: freeze-dried mezlocillin sodium, sulbactam sodium, citrate pH 6.5, 7 days 0° C., in 100 mL 5% fructose + etimicin sulfate 200 mg, Time 2 h
[7] = Example 11: freeze-dried mezlocillin sodium, sulbactam sodium, citrate pH 6.5, 7 days 0° C., in 100 mL 5% fructose + etimicin sulfate 200 mg, Time 4 h
[8] = Example 11: freeze-dried mezlocillin sodium, sulbactam sodium, citrate pH 6.5, 7 days 0° C., in 100 mL 5% fructose + etimicin sulfate 200 mg, Time 6 h
[9] = Example 11: freeze-dried mezlocillin sodium, sulbactam sodium, citrate pH 6.5, 7 days 0° C., in 100 mL 5% fructose + etimicin sulfate 200 mg, Time 8 h

Description: The amounts of β-lactam antibiotics and β-lactamase inhibitor were determined using C18 reverse-phase LC and UV-VIS detector (Tianjin Hemay BioTech Co., Ltd., analysis method No. HM-K-03). The content of aminoglycoside antibiotics was measured using reverse-phase HPLC and evaporation-light-scattering detector (ELSD detector) (Tianjin Hemay BioTech Co., Ltd., analysis method No. HM-K-08). The amount of antibiotic component at each time point was expressed as a percentage with respect to the amount at the initial time (herein defined as 100%). The relative amount of each antibiotic component in the composition at each time point was expressed as peak area ratio with respect to the corresponding peak area of an external standard.

Row | Structure (SMILES) | amount of component as percentage with respect to the amount at the initial time [1] | amount of component as percentage with respect to the amount at the initial time [2] | amount of component as percentage with respect to the amount at the initial time [3] | amount of component as percentage with respect to the amount at the initial time [4] | amount of component as percentage with respect to the amount at the initial time [5] | amount of component as percentage with respect to the amount at the initial time [6] | amount of component as percentage with respect to the amount at the initial time [7] | amount of component as percentage with respect to the amount at the initial time [8] | amount of component as percentage with respect to the amount at the initial time [9] | other results
1 | CC1(C)S[C@@H]2[C@H](NC(=O)[C@H](NC(=O)N3CCN(S(C)(=O)=O)C3=O)c3ccccc3)C(=O)N2[C@H]1C(=O)O [Mezlocillin sodium] | 96.48% | 95.90% | 71.70% | 116.6% | 94.83% | 91.86% | 91.96% | 91.52% | 98.56% | amount of component as percentage with respect to the amount at the initial time (Example 10: mezlocillin sodium 2 g, sulbactam sodium 0.5 g, etimicin sulfate 200 mg, citrate pH 6.5, 200 mL water, room temperature, Time 4 h): 91.78%; amount of component as percentage with respect to the amount at the initial time (Example 10: mezlocillin sodium 2 g, sulbactam sodium 0.5 g, etimicin sulfate 200 mg, citrate pH 6.5, 200 mL water, room temperature, Time 6 h): 93.08%; amount of component as percentage with respect to the amount at the initial time (Example 10: mezlocillin sodium 2 g, sulbactam sodium 0.5 g, etimicin sulfate 200 mg, citrate pH 6.5, 200 mL water, room temperature, Time 8 h): 97.69%; amount of component as percentage with respect to the amount at the initial time (Example 13: freeze-dried mezlocillin sodium, citrate pH 6, 7 days 0° C., in 100 mL 5% fructose + etimicin sulfate 200 mg, Time 0 h): 95.05%; amount of component as percentage with respect to the amount at the initial time (Example 13: freeze-dried mezlocillin sodium, citrate pH 6, 7 days 0° C., in 100 mL 5% fructose + etimicin sulfate 200 mg, Time 1 h): 96.63%; amount of component as percentage with respect to the amount at the initial time (Example 13: freeze-dried mezlocillin sodium, citrate pH 6, 7 days 0° C., in 100 mL 5% fructose + etimicin sulfate 200 mg, Time 2 h): 89.33%; amount of component as percentage with respect to the amount at the initial time (Example 13: freeze-dried mezlocillin sodium, citrate pH 6, 7 days 0° C., in 100 mL 5% fructose + etimicin sulfate 200 mg, Time 4 h): 98.72%; amount of component as percentage with respect to the amount at the initial time (Example 13: freeze-dried mezlocillin sodium, citrate pH 6, 7 days 0° C., in 100 mL 5% fructose + etimicin sulfate 200 mg, Time 6 h): 92.73%; amount of component as percentage with respect to the amount at the initial time (Example 13: freeze-dried mezlocillin sodium, citrate pH 6, 7 days 0° C., in 100 mL 5% fructose + etimicin sulfate 200 mg, Time 8 h): 92.51%
2 | CCN[C@@H]1C[C@H](N)[C@@H](O[C@H]2O[C@H](CN)CC[C@H]2N)[C@H](O)[C@H]1O[C@H]1OC[C@](C)(O)[C@H](NC)[C@H]1O.O=S(=O)(O)O [Etimicin sulfate, etimicin sulfate] | 100.1% | 100.6% | 99.79% | 100.1% | 100.4% | 99.31% | 99.56% | 99.61% | 99.25% | amount of component as percentage with respect to the amount at the initial time (Example 6: freeze-dried cefoperazone sodium 4 g, sulbactam sodium 1 g, citrate pH 6.75, + etimicin sulfate 200 mg, 7 days 0° C., dissolved in 100 mL water, Time 0 h): 108.9%; amount of component as percentage with respect to the amount at the initial time (Example 6: freeze-dried cefoperazone sodium 4 g, sulbactam sodium 1 g, citrate pH 6.75, + etimicin sulfate 200 mg, 7 days 0° C., dissolved in 100 mL water, Time 1 h): 100.2%; amount of component as percentage with respect to the amount at the initial time (Example 6: freeze-dried cefoperazone sodium 4 g, sulbactam sodium 1 g, citrate pH 6.75, + etimicin sulfate 200 mg, 7 days 0° C., dissolved in 100 mL water, Time 2 h): 100.5%; amount of component as percentage with respect to the amount at the initial time (Example 6: freeze-dried cefoperazone sodium 4 g, sulbactam sodium 1 g, citrate pH 6.75, + etimicin sulfate 200 mg, 7 days 0° C., dissolved in 100 mL water, Time 4 h): 100.4%; amount of component as percentage with respect to the amount at the initial time (Example 6: freeze-dried cefoperazone sodium 4 g, sulbactam sodium 1 g, citrate pH 6.75, + etimicin sulfate 200 mg, 7 days 0° C., dissolved in 100 mL water, Time 6 h): 100.4%; amount of component as percentage with respect to the amount at the initial time (Example 6: freeze-dried cefoperazone sodium 4 g, sulbactam sodium 1 g, citrate pH 6.75, + etimicin sulfate 200 mg, 7 days 0° C., dissolved in 100 mL water, Time 8 h): 97.50%

— patent US20090156518A1, “STABLE PHARMACEUTICAL COMPOSITION COMPRISING BETA-LACTAM ANTIBIOTIC AND BUFFER” (priority 2006, published 2009)
